Test results published in patent publication US10030027B2, “Soluble guanylate cyclase stimulators” (MERCK SHARP & DOHME CORP., priority 2015, dated 2018).

Columns and labels:
sGC α1/β1 heterodimer = sGC α1/β1 heterodimer (Homo sapiens (Human), UniProt Q02108+Q02153); assay: Cell-based sGC functional assay (cyclic GMP assay for sGC activator: CASA assay); details: CHO-K1/sGC cells; for Emax: CHO-K1, activity expressed as percentage of compound A (standard), read-out: % Activation; for EC50: inflection point, 4P fit, read-out: IP
Outline: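 CHO-K1 cells stably expressing sGC α1/β1 were pre-incubated with or without 1 μM DETA-NO (30 min, 25 °C), then exposed to compounds for 1 hr at 37 °C with 0.5 mM IBMX. Intracellular cGMP was read by HTRF and expressed as a percentage of a reference heme-dependent activator's maximum.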

[1] = molecular target: human recombinant sGC enzyme (Homo sapiens (Human), UniProt Q02108+Q02153); assay: Size Exclusion Chromatography (SEC) competition binding assay using [3H] Ex-77B as the radioligand; details: [3H] Ex-77B radioligand, 24 hours at 37° C.
Outline: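 Recombinant human sGC binding measured by competition against tritiated Ex-77B radioligand, with non-specific binding defined by 1 μM unlabeled Ex-77B.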

Row | SMILES | Emax (sGC α1/β1 heterodimer) [%] | EC50 (sGC α1/β1 heterodimer) [nM] | Ki [1] [nM]
1 | CC(C)(Cc1nc(C2(C)C(=O)Nc3nc(-c4nn(Cc5ccccc5F)c5cc(Cl)ccc45)nc(N)c32)co1)C(=O)O (centres unmarked) [Example 128A, 3-(4-{4-amino-2-[6-chloro-1-(2-fluorobenzyl)-1H-indazol-3-yl]-5-methyl-6-oxo-6,7-dihydro-5H-pyrrolo[2,3-d]pyrimidin-5-yl}-1,3-oxazol-2-yl)-2,2-dimethylpropanoic acid] | 117 | 137 | 0.111
2 | CCCCn1nc(-c2nc(N)c3c(n2)NC(=O)[C@@]3(C)c2ccc(CCC(=O)O)cc2)c2ccc(C)nc21 [Example 111B, (S)-3-{4-{4-amino-2-(1-butyl-6-methyl-1H-pyrazolo[3,4-b]pyridin-3-yl)-5-methyl-6-oxo-6,7-dihydro-5H-pyrrolo[2,3-d]pyrimidin-5-yl}phenyl}propanoic acid] | 86 | 9250 | 1.11
3 | Cc1ccc2c(-c3nc(N)c4c(n3)NC(=O)[C@@]4(C)c3ccc(CCC(=O)O)cc3)nn(CCCC(F)(F)F)c2n1 [Example 20B, (S)-3-(4-{4-amino-5-methyl-2-[6-methyl-1-(4,4,4-trifluorobutyl)-1H-pyrazolo[3,4-b]pyridin-3-yl]-6-oxo-6,7-dihydro-5H-pyrrolo[2,3-d]pyrimidin-5-yl}phenyl)propanoic acid] | 88 | 2210 | 4.49
4 | CC1(c2nc3cc(C(=O)O)ccc3s2)C(=O)Nc2nc(-c3nn(Cc4ccccc4F)c4cc(Cl)ccc34)nc(N)c21 (centres unmarked) [Example 130A, 2-{4-amino-2-[6-chloro-1-(2-fluorobenzyl)-1H-indazol-3-yl]-5-methyl-6-oxo-6,7-dihydro-5H-pyrrolo[2,3-d]pyrimidin-5-yl}-1,3-benzothiazole-5-carboxylic acid] | 116 | 1230 | 0.184
5 | Cc1ccc2c(-c3nc(N)c4c(n3)NC(=O)[C@@]4(C)c3ccc(CCC(=O)O)cc3)nn(Cc3ccc(C)c(F)c3F)c2n1 [Example 25B, (S)-3-(4-{4-amino-2-[1-(2,3-difluoro-4-methylbenzyl)-6-methyl-1H-pyrazolo[3,4-b]pyridin-3-yl]-5-methyl-6-oxo-6,7-dihydro-5H-pyrrolo[2,3-d]pyrimidin-5-yl}phenyl)propanoic acid] | 147 | 201 | 0.262
6 | Nc1nc(-c2nn(Cc3ccccc3F)c3ncccc23)nc2c1C(c1ccc(CCC(=O)O)cc1)(C1CC1)C(=O)N2 (centres unmarked) [Example 148A, 3-(4-{4-amino-5-cyclopropyl-2-[1-(2-fluorobenzyl)-1H-pyrazolo[3,4-b]pyridin-3-yl]-6-oxo-6,7-dihydro 5H-pyrrolo[2,3-d]pyrimidin-5-yl}phenyl)propanoic acid] | 87.8 | 238 | 0.123
7 | C[C@@]1(c2ccc(CCC(=O)N[C@H](CO)C(=O)O)cc2)C(=O)Nc2nc(-c3nn(Cc4ccccc4F)c4ncccc34)nc(N)c21 [Example 106B, (5S)-(3-(4-{4-amino-2-[1-(2-fluorobenzyl)-1H-pyrazolo[3,4-b]pyridin-3-yl]-5-methyl-6-oxo-6,7-dihydro-5H-pyrrolo[2,3-d]pyrimidin-5-yl}phenyl)propanoyl)-D-serine] | 70 | 1500 | 0.058
8 | C[C@@]1(c2ccc(CCC(=O)O)cc2)C(=O)Nc2nc(-c3nn(CCCC(F)(F)F)c4cc(Cl)ccc34)nc(N)c21 [Example 41B, (S)-3-(4-{4-amino-2-[6-chloro-1-(4,4,4-trifluorobutyl)-1H-indazol-3-yl]-5-methyl-6-oxo-6,7-dihydro-5H-pyrrolo[2,3-d]pyrimidin-5-yl}phenyl)propanoic acid] | 85 | 779 | 0.717
9 | CC1(c2cn(C(C)(C)C(=O)O)nn2)C(=O)Nc2nc(-c3nn(CCC(F)(F)C(F)(F)F)c4cc(Cl)ccc34)nc(N)c21 (centres unmarked) [Example 30B, 2-(4-{4-amino-2-[6-chloro-1-(3,3,4,4,4-pentafluorobutyl)-1H-indazol-3-yl]-5-methyl-6-oxo-6,7-dihydro-5H-pyrrolo[2,3-d]pyrimidin-5-yl}-1H-1,2,3-triazol-1-yl)-2-methylpropanoic acid] | 93 | 176 | 0.56

Continued, values first:

Row | Emax (sGC α1/β1 heterodimer) [%] | EC50 (sGC α1/β1 heterodimer) [nM] | Ki [1] [nM] | SMILES
10 | 103 | 301 | 0.057 | CC1(c2ccc(/C=C/C(=O)O)cc2)C(=O)Nc2nc(-c3nn(Cc4ccccc4F)c4cc(Cl)ccc34)nc(N)c21 (centres unmarked) [Example 218A, (2E)-3-(4-{4-amino-2-[6-chloro-1-(2-fluorobenzyl)-1H-indazol-3-yl]-5-methyl-6-oxo-6,7-dihydro-5H-pyrrolo[2,3-d]pyrimidin-5-yl}phenyl)prop-2-enoic acid]
11 | 121 | 228 | 0.031 | CC(C)(Cc1coc(C2(C)C(=O)Nc3nc(-c4nn(Cc5cccc(F)c5F)c5cc(Cl)ccc45)nc(N)c32)n1)C(=O)O (centres unmarked) [Example 180A, 3-(2-{4-amino-2-[6-chloro-1-(2,3-difluorobenzyl)-1H-indazol-3-yl]-5-methyl-6-oxo-6,7-dihydro-5H-pyrrolo[2,3-d]pyrimidin-5-yl}-1,3-oxazol-4-yl)-2,2-dimethyl-propanoic acid]
12 | 90.3 | 54 | 0.468 | CC(C)(CCc1csc(C2(C)C(=O)Nc3nc(-c4nn(Cc5cccc(F)c5)c5cc(F)ccc45)nc(N)c32)n1)C(=O)O (centres unmarked) [Example 196A, 4-(2-{4-amino-2-[6-fluoro-1-(3-fluorobenzyl)-1H-indazol-3-yl]-5-methyl-6-oxo-6,7-dihydro-5H-pyrrolo[2,3-d]pyrimidin-5-yl}-1,3-thiazol-4-yl)-2,2-dimethyl-butanoic acid]
13 | 119 | 3700 | 0.189 | Cc1ccnc(Cn2nc(-c3nc(N)c4c(n3)NC(=O)C4(C)c3nc(CC(C)(C)C(=O)O)co3)c3ccc(Cl)cc32)c1F (centres unmarked) [Example 215A, 3-(2-{4-amino-2-[6-chloro-1-((3-fluoro-4-methyl-pyridin-2-yl)methyl)-1H-indazol-3-yl]-5-methyl-6-oxo-6,7-dihydro-5H-pyrrolo[2,3-d]pyrimidin-5-yl} 1,3-oxazol-4-yl)-2,2-dimethyl-propanoic acid]
14 | 143 | 185 | 0.258 | CC1(c2ccc(/C=C/C(=O)O)cc2)C(=O)Nc2nc(-c3nn(CCC(F)(F)C(F)(F)F)c4cc(Cl)ccc34)nc(N)c21 (centres unmarked) [Example 157A, (2E)-3-(4-{4-amino-2-[6-chloro-1-(3,3,4,4,4-penta-fluorobutyl)-1H-indazol-3-yl]-5-methyl-6-oxo-6,7-dihydro-5H-pyrrolo[2,3-d]pyrimidin-5-yl}phenyl)prop-2-enoic acid]
15 | – | 1730 | 0.08 | CC1(c2ccc(CCS(=O)(=O)O)cc2)C(=O)Nc2nc(-c3nn(Cc4ccccc4F)c4cc(Cl)ccc34)nc(N)c21 (single isomer, unassigned) [Example 258B, 2-(4-{4-Amino-2-[6-chloro-1-(2-fluorobenzyl)-1H-indazol-3-yl]-5-methyl-6-oxo-6,7-dihydro-5H-pyrrolo[2,3-d]pyrimidin-5-yl}phenyl)ethanesulfonic acid]
16 | 120 | 220 | 0.052 | CC(C)(Cc1coc(C2(C)C(=O)Nc3nc(-c4nn(Cc5cccc(F)c5F)c5cc(F)ccc45)nc(N)c32)n1)C(=O)O (centres unmarked) [Example 200A, 3-(2-{4-amino-2-[1-(2,3-difluoro-benzyl)-6-fluoro-1H-indazol-3-yl]-5-methyl-6-oxo-6,7-dihydro-5H-pyrrolo[2,3-d]pyrimidin-5-yl}-1,3-oxazol-4-yl)-2,2-dimethyl-propanoic acid]
